Data as given in US5773458A, “1-azabicycloheptane derivatives” (American Home Products Corporation, priority 1997, dated 1998).

Molecular target: T1, M1 acetylcholine receptors (Homo sapiens, UniProt P11229)
T1 construct: expressed in transfected cells; host or cells: Chinese Hamster Ovary (CHO) cells, CMV vector
T1 sequence (P11229 1-460): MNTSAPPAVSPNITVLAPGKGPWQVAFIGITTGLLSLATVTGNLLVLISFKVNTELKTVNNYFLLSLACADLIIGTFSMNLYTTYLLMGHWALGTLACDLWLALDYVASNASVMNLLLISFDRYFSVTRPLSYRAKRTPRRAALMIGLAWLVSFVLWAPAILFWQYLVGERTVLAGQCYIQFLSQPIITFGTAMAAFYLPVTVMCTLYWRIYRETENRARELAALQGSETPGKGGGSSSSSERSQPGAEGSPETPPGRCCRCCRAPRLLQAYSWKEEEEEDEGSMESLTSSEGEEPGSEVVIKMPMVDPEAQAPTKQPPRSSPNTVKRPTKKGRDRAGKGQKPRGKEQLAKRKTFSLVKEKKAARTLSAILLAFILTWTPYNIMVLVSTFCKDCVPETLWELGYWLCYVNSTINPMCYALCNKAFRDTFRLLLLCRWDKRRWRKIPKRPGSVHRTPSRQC
Assay: Phosphoinositide (PI) hydrolysis in transfected CHO cells
Assay type: cell-based
Settings: statement in words, no figures given
Experimental: The tubes are incubated for one hour at 37° C. The reaction is quenched with chloroform and the phosphatidyl inositols are extracted with methanol and chloroform. Phase separation is assured with the addition of methanol and water followed by centrifugation. The tritiated inositol phosphates are recovered on BioRad AG 1-X8 anion exchange resin in the formate cycle. After washing the resin with water and myo-inositol, the inositol phosphates are eluted with ammonium formate/formic acid, collected and subjected to liquid scintillation spectroscopy.

CNC(=O)O[C@@H]1C[N+]2([O-])CC[C@@H]1C2 (relative stereo) [Example 1, (exo)--Methylcarbamic acid 1-oxy-1-aza-bicyclo[2.2.1]hept-3-yl ester]
functional m1 muscarinic agonism: enhanced muscarinic agonism
